Source: US8722687B2, “Imidazo [1,2-A]pyridine derivatives as FGFR kinase inhibitors for use in therapy” (Astex Therapeutics Ltd, priority 2009, dated 2014)
pIC50: −log10 of the molar value.

Assays:
[1] = target: T1, VEGFR2 (Homo sapiens, UniProt P35968); assay: VEGFR2 in vitro kinase inhibitory activity assay; type: biochemical; settings: read-out: VEGFR2 IC50(μM) or % I
T1 construct: purchased Upstate
Experimental: FGFR3, VEGFR2 and PDGFR in vitro Kinase Inhibitory Activity Assays
Enzymes (from Upstate), prepared at 2× final concentration, were incubated with test compounds, biotinylated Flt3 substrate (biotin-VASSDNEYFYVDF) (Cell Signalling Technology Inc.) and ATP in the appropriate assay buffer (Table 1). The reaction was allowed to proceed for 3 hours (FGFR3), 1 hour (VEGFR2, PDGFR-beta) at room temperature on a plate shaker at 700 rpm before being stopped with 35 mM EDTA, pH 8 (FGFR3, VEGFR2) or 55 mM EDTA, pH 8 (PDGFR-beta). 5× detection mix/50 mM HEPES pH 7.5, 0.1% BSA, 11.34 nM Eu-anti-pY (PY20) (PerkinElmer) 74 nM SA-XL665 (Cisbio) for FGFR3, 50 mM HEPES, pH 7.5, 0.1% BSA, 11.34 nM Eu-anti-pY (PY20), 187.5 nM SA-XL665 for VEGFR2 and 50 mM HEPES, pH 7.5, 0.1% BSA, 11.34 nM Eu-anti-pY (PT66) (PerkinElmer), 375 nM SA-XL665 (Cisbio) for PDGFR-beta) was then added to each well and the plate sealed and incubated at room temperature for one hour on a plate shaker at 700 rpm. The plate was then read on a Packard Fusion plate reader or a BMG Pherastar both in TRF mode.
Kinase Assay buffers were:
B: 50 mM HEPES pH 7.5, 6 mM MnCl2, 1 mM DTT, 0.01% TritonX-100, 0.1 mM Sodium orthovanadate

[2] = tested on: parental wild-type Ba/F3 cells; assay: Ba/F3 (WT) cell proliferation assay (Alamar Blue); type: cell-based, murine; settings: read-out: BaF3 WT prolif; for inhibition at 10 µM / inhibition at 3 µM: Mus musculus, BaF3, 72 h; for pIC50: BaF3, 72 hours, with mouse IL-3
Experimental: Ba/F3-TEL-FGFR3 & Ba/F3 (WT) Cell Proliferation Assays
Stably transfected Ba/F3-TEL-FGFR3 cells were plated out into black 96-well tissue culture plates with clear bottoms in RPMI medium containing 10% FBS and 0.25 mg/ml G418 at a density of 5×10^3 cells/well (200 μl per well). The parental wild-type Ba/F3 cells (DSMZ no.: ACC 300) were plated out into black 96-well tissue culture plates with clear bottoms in RPMI medium containing 10% FBS and 2 ng/ml mouse IL-3 (R&D Systems) at a density of 2.5×10^3 cells/well (200 μl per well). Plates were placed in an incubator overnight before adding the compounds the following day. Dilutions of compounds were made in DMSO starting at 10 mM and were diluted into the wells to give a final DMSO concentration of 0.1% in assay. Compounds were left on the cells for 72 hours before the plates were removed from the incubator and 20 μl of Alamar Blue™ (Biosource) was added to each well. Plates were placed in the incubator for 4-6 hours before reading plates at 535 nm (excitation)/590 nm (emission) on a Fusion plate reader (Packard). Where inhibition is high an IC50 can be determined.

[3] = tested on: human prostate cancer PC3 cells; assay: EB1 cellular assay (Eb1 Comet assay, microtubule disruption); type: cell-based; settings: PC-3, lowest active concentration: Eb1 foci absent in at least 50% of treated PC3 cells, 1 hour, read-out: Eb1 LAC
Experimental: The Eb1 Comet assay relies on the detection of the Eb1 protein at the plus end of polymerizing microtubules (Mimori-Kiyosue, 2000) using indirect immunofluorescence. Disruption of microtubule dynamics through de-polymerization or stabilization results in a de-localization of Eb1 from the growing microtubule ends and this is visualized by the disappearance of Eb1 containing cytoplasmic foci.
Briefly, human prostate cancer PC3 cells obtained from the American Type Culture Collection were grown in 96-well plates (Greiner, cat. no. 655090) in HAM's F12 medium as recommended by the provider (ATCC). The cells were treated for 1 hour at 37° C. with compounds dissolved in DMSO (0.6% final DMSO concentration). The culture medium was then removed by aspiration and the cells were fixed by adding cold methanol (−20° C.). After a 15 minutes incubation at −20° C., the cells were washed twice with DPBS (Gibco) containing 0.5% Triton X-100. Mouse Eb1 antibody (BD Transduction Laboratories, cat. no. 610534) was added to the cells (1/250 dilution in DPBS containing 1% BSA) and incubated overnight at room temperature. The antibody was subsequently removed and the cells washed twice with DPBS, 0.5% Triton X-100. Secondary goat anti-mouse antibody conjugated to Alexa 488 fluorescent dye (Molecular Probes) was added at a 1/500 dilution in DPBS, 1% BSA and incubated for 1 hour at 37° C. The cells were washed twice with DPBS, 0.5% Triton X-100 and then DPBS containing 0.5% Triton X-100 and 1/5000 Hoechst 33342 (Molecular Probes) was added. Microscopy based Eb1 foci visualization was carried out using an IN Cell Analyser 1000 (Amersham Biosciences) using a 20× objective. Compound dependent microtubule disruption was visually determined by the disappearance in Eb1 foci. The lowest active concentration (LAC) was determined as the concentration where Eb1 foci were absent in at least 50% of the treated cells. Herein the effects of test compounds are expressed as pLAC (the negative log value of the LAC-value)

T1 sequence (P35968 20-1356): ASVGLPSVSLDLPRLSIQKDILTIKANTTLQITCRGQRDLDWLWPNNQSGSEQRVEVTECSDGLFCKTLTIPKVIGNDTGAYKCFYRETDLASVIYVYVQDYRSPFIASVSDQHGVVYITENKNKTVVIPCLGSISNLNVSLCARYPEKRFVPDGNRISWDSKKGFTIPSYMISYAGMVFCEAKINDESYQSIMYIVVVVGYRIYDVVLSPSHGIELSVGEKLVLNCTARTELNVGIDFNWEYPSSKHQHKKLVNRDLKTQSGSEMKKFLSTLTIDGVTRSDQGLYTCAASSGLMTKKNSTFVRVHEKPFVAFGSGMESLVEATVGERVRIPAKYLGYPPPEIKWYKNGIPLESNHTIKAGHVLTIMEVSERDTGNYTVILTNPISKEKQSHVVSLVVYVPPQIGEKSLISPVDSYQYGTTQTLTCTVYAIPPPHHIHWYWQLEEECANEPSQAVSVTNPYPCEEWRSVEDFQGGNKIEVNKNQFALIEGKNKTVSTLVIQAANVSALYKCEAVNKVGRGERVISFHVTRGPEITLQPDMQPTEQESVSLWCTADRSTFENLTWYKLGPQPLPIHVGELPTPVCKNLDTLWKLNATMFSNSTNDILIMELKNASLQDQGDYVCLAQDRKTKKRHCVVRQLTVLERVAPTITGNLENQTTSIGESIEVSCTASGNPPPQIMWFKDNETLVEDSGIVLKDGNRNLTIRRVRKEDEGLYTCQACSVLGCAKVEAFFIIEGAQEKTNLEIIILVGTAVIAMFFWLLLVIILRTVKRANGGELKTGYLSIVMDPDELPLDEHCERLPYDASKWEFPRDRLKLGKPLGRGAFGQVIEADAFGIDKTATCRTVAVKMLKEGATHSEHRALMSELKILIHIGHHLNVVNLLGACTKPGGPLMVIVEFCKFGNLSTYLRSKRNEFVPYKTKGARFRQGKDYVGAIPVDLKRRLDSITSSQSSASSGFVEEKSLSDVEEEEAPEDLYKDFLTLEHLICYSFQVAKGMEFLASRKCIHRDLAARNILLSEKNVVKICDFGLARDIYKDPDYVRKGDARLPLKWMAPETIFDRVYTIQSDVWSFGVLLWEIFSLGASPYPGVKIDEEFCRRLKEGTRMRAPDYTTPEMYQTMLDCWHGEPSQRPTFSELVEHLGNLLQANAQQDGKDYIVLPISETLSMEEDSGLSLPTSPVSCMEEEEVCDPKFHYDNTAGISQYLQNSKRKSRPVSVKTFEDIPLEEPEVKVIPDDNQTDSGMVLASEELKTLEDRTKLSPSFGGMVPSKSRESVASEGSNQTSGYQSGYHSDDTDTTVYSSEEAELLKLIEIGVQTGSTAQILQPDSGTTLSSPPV

## CC(C)Oc1cc(NC(=O)NCC(F)(F)F)cc(-c2cnc3cc(-c4ncccn4)ccn23)c1 [Compound F-2, 1-[3-Isopropoxy-5-(7-pyrimidin-2-yl-imidazo[1,2-a]pyridin-3-yl)-phenyl]-3-(2,2,2-trifluoro-ethyl)-urea]
[1]
  IC50: 1.14 µM
[2]
  inhibition at 10 µM: 33%
[3]
  minimal effective concentration: > 10 µM

## CC(C)Oc1cc(NC(=O)NCC(F)(F)F)cc(-c2cnc3cc(-c4ncc(F)c(N)n4)ccn23)c1 [Compound F-1, 1-{3-[7-(4-Amino-5-fluoro-pyrimidin-2-yl)-imidazo[1,2-a]pyridin-3-yl]-5-isopropoxy-phenyl}-3-(2,2,2-trifluoro-ethyl)-urea]
[1]
  IC50: 1.35 µM
[2]
  inhibition at 10 µM: 42%
[3]
  minimal effective concentration: > 10 µM

## Cc1nnc(-c2ccn3c(-c4cc(NC(=O)NCC(F)(F)F)cc(OC(C)C)c4)cnc3c2)s1.Cl [Compound F-20, 1-{3-Isopropoxy-5-[7-(5-methyl-[1,3,4]thiadiazol-2-yl)-imidazo[1,2-a]pyridin-3-yl]-phenyl}-3-(2,2,2-trifluoro-ethyl)-urea]
[1]
  IC50: 0.029 µM
[2]
  inhibition at 3 µM: 0%
[3]
  minimal effective concentration: 0.1 µM

## CC(C)Oc1cc(NC(=O)NCC(F)(F)F)cc(-c2cnc3cc(OCCO)ccn23)c1 [Compound F-17, 1-{3-[7-(2-Hydroxy-ethoxy)-imidazo[1,2-a]pyridin-3-yl]-5-isopropoxy-phenyl}-3-(2,2,2-trifluoro-ethyl)-urea]
[1]
  IC50: 0.51 µM
[2]
  inhibition at 10 µM: 0%
[3]
  minimal effective concentration: 3 µM

## COCc1cc(NC(=O)NCC(F)(F)F)cc(-c2cnc3cc(-c4nnc(C)o4)ccn23)c1 [Compound F-7, 1-{3-Methoxymethyl-5-[7-(5-methyl-[1,3,4]oxadiazol-2-yl)-imidazo[1,2-a]pyridin-3-yl]-phenyl}-3-(2,2,2-trifluoro-ethyl)-urea]
[1]
  IC50: 0.17 µM
[2]
  inhibition at 10 µM: 0%
[3]
  minimal effective concentration: 10 µM

## Cc1cn(-c2ccn3c(-c4cc(NC(=O)NCC(F)(F)F)cc(OC(C)C)c4)cnc3c2)cn1 [Compound F-28, 1-{3-Isopropoxy-5-[7-(4-methylimidazol-1-yl)-imidazo[1,2-a]pyridin-3-yl]-phenyl}-3-(2,2,2-trifluoro-ethyl)-urea]
[1]
  IC50: 0.077 µM
[2]
  inhibition at 10 µM: 73%
[3]
  minimal effective concentration: 5 µM

## Cc1nnc(-c2ccn3c(-c4cc(NC(=O)NCC(F)(F)F)cc(OC(C)C)c4)cnc3c2)o1 [Compound F-5, 1-{3-Isopropoxy-5-[7-(5-methyl-[1,3,4]oxadiazol-2-yl)-imidazo[1,2-a]pyridin-3-yl]-phenyl}-3-(2,2,2-trifluoro-ethyl)-urea]
[1]
  IC50: 0.635 µM
[2]
  inhibition at 10 µM: 59%
[3]
  minimal effective concentration: > 10 µM

## CC(C)Oc1cc(NC(=O)NCC(F)(F)F)cc(-c2cnc3cc(OCCCO)ccn23)c1 [Compound F-18, 1-{3-[7-(3-Hydroxy-propoxy)-imidazo[1,2-a]pyridin-3-yl]-5-isopropoxy-phenyl}-3-(2,2,2-trifluoro-ethyl)-urea]
[1]
  IC50: 0.67 µM
[2]
  inhibition at 10 µM: 54%
[3]
  minimal effective concentration: 5 µM

## CCNC(=O)Nc1cc(OC(C)C)cc(-c2cnc3cc(-c4nnc(C)s4)ccn23)c1 [Compound F-23, 1-Ethyl-3-{3-isopropoxy-5-[7-(5-methyl-[1,3,4]thiadiazol-2-yl)-imidazo[1,2-a]pyridin-3-yl]-phenyl}-urea]
[1]
  IC50: 0.087 µM
[2]
  inhibition at 10 µM: 5%
[3]
  minimal effective concentration: 5 µM

## CC(C)Oc1cc(NC(=O)NCC(F)(F)F)cc(-c2cnc3cc(-c4nccc(C(C)(C)CO)n4)ccn23)c1 [Compound F-27, 1-(3-{7-[4-(2-Hydroxy-1,1-dimethylethyl)-pyrimidin-2-yl]-imidazo[1,2-a]pyridin-3-yl}-5-isopropoxy-phenyl)-3-(2,2,2-trifluoro-ethyl)-urea]
[1]
  IC50: 1.2 µM
[2]
  inhibition at 3 µM: 50%
[3]
  minimal effective concentration: > 10 µM

## CCOc1cc(NC(=O)NCC(F)(F)F)cc(-c2cnc3cc(-c4nnc(C)o4)ccn23)c1 [Compound F-15, 1-{3-Ethoxy-5-[7-(5-methyl-[1,3,4]oxadiazol-2-yl)-imidazo[1,2-a]pyridin-3-yl]-phenyl}-3-(2,2,2-trifluoro-ethyl)-urea]
[1]
  IC50: 0.34 µM
[2]
  inhibition at 10 µM: 23%
[3]
  minimal effective concentration: 10 µM

## CC(C)Oc1cc(NC(=O)NCC(F)(F)F)cc(-c2cnc3cc(-c4nccc(C(C)C)n4)ccn23)c1 [Compound F-29, 1-{3-Isopropoxy-5-[7-(4-isopropyl-pyrimidin-2-yl)-imidazo[1,2-a]pyridin-3-yl]-phenyl}-3-(2,2,2-trifluoroethyl)-urea]
[1]; 1 h, % I at 10 μM
  inhibition at 10 µM: 53%
[2]
  pIC50: 5.40
[3]
  minimal effective concentration: > 10 µM

## Cc1nc(N)cc(-c2ccn3c(-c4cc(NC(=O)NCC(F)(F)F)cc(OC(C)C)c4)cnc3c2)n1 [Compound F-4, 1-{3-[7-(6-Amino-2-methyl-pyrimidin-4-yl)-imidazo[1,2-a]pyridin-3-yl]-5-isopropoxy-phenyl}-3-(2,2,2-trifluoro-ethyl)-urea]
[1]
  IC50: 0.1 µM
[2]
  inhibition at 10 µM: 5%
[3]
  minimal effective concentration: 1 µM

## COCc1cc(NC(=O)NCC(F)(F)F)cc(-c2cnc3cc(-c4ccnc(C(F)(F)F)n4)ccn23)c1 [Compound F-9, 1-{3-Methoxymethyl-5-[7-(2-trifluormethyl-pyrimidin-4-yl)-imidazo[1,2-a]pyridin-3-yl]-phenyl}-3-(2,2,2-trifluoro-ethyl)-urea]
[1]
  IC50: 0.057 µM
[2]
  inhibition at 3 µM: 17%
[3]
  minimal effective concentration: 2 µM

## CC(C)Oc1cc(NC(=O)NCC(F)(F)F)cc(-c2cnc3cc(N4CCC(F)(F)CC4)ccn23)c1 [Compound F-13, 1-{3-[7-(4,4-Difluoro-piperidin-1-yl)-imidazo[1,2-a]pyridin-3-yl]-5-isopropoxy-phenyl}-3-(2,2,2-trifluoro-ethyl)-urea]
[1]; 1 h, % I at 3 μM
  inhibition at 3 µM: 55%
[2]
  pIC50: 5.49
[3]
  minimal effective concentration: 5 µM

## CC(C)Oc1cc(NC(=O)NCC(F)(F)F)cc(-c2cnc3cc(C(=O)C4CC4)ccn23)c1 [Compound F-6, 1-[3-(7-Cyclopropanecarbonyl-imidazo[1,2-a]pyridin-3-yl)-5-isopropoxy-phenyl]-3-(2,2,2-trifluoro-ethyl)-urea]
[1]
  IC50: 0.074 µM
[2]
  pIC50: 5.25
[3]
  minimal effective concentration: 3 µM
